Source: US12108762B2, “Methods of controlling crop pests using aromatic amide insect repellents, methods of making aromatic amide insect repellents, and novel aromatic amide insect repellents” (priority 2020, dated 2024)
Entries after “also recorded” stand apart in the source; their conditions may differ.

What was measured:
Type in all cases: in vivo
Drosophila melanogaster [1] = assay: Two-choice trap olfactory assay; conditions: for interaction with control trap in comparison with repellent-treated trap: low participation; for trap preference (control trap versus repellent-treated trap): DMSO control vs 25 μl of 25% by weight in DMSO
Method: (§1) The D. melanogaster assays served as a model for SWD repellency. Forty different aromatic amides were studied at a 25% concentration by weight in DMSO, and the fruit fly chemosensory behaviors in response thereto were characterized. […]
(§2) Flies were monitored throughout their life cycle. Five-day-old flies (10 male and 10 females) were selected per assay, and starved for a predetermined length of time (e.g., 20 hours). After starvation, two different assays were used to study the olfactory related responses.
FIG. 7B is a diagram of a 2-choice trap olfactory assay. Two ACV traps 110a-b were prepared as above, in a cylinder 150 from upturned 1.5 ml micro-centrifuge tubes with the tapered end trimmed away, and a pipette 120a-b inserted into the inverted micro-centrifuge tube. In the cylinder 150, one trap 110a was treated with 25 μl of DMSO (as a control) on the filter paper 135, and the other trap 110b with the 25 μl of the 25% by weight solution of the test compound in DMSO applied to the filter paper 130. 125 μl of 10% ACV, diluted with water, was placed in the bottom of the traps 110a-b. Both traps contained filter paper as prepared in the one-trap assay. All trials were screened for 24 hours, and the number of flies 105 in each trap was counted. Positions of the traps (i.e., left or right, relative to the location of the chamber 150 in the room) were randomized. The number of flies 105 in each trap 110a and 110b were counted and recorded at 4, 6 and 24 hours.
(§3) The different assays assigned results as follows. For the single-choice olfactory assay, the numbers of flies were counted according to (1) those that entered the trap, (2) those that stayed outside the trap and lived, and (3) those that died outside the trap. For the two-choice olfactory assay, the numbers of flies were counted according to (1) those that entered the control trap, (2) those that entered the trap containing the repellent, (3) those that stayed outside of both traps and lived, and (4) those that died outside the traps. For the gustatory assay, the numbers of flies were counted according to those that had (1) a red-colored abdomen, (2) a blue-colored abdomen, (3) a purple abdomen, and (4) no added color to their abdomen. A nonparametric Mann-Whitney U test was used to compare the statistical differences between assays using DEET and the same assays using one of the present repellents for all trials.

Drosophila melanogaster [2] = assay: One-choice (single-trap) olfactory trap assay; conditions: for repellency compared with DEET, one-choice trap assay: 25 μl of 25% by weight in DMSO on filter paper, 10% ACV attractant, 6 hours (FIG. 10) and 24 hours (FIG. 13); for fly death during the 6-hour screen: starved flies
Method: as §1, §2
FIG. 7A is a diagram of a single-trap olfactory assay. Flies 105 were placed in a cylindrical chamber 100 containing a trap 110. The trap 110 was fashioned from an upturned 1.5 ml micro-centrifuge tube where the tapered end was trimmed away. A pipette tip 120 was cut to form a funnel and inserted into the bottom of the inverted micro-centrifuge tube 110. Then, filter paper 130 was placed between the pipette tip 120 and tip of micro-centrifuge tube 110. The pipette tip 120 was placed so that entering flies could not make physical contact with the filter paper 130. The filter paper 130 was placed in this manner so that when the filter paper 130 was treated with the repellent solution, the flies would only be able to smell at a distance and should be repelled even in the presence of an attractant.
A 25 μl sample of test compound at 25% concentration was applied to the filter paper 130 in order to provide the odor source. At the bottom of the trap 110, 125 μl of 10% apple cider vinegar (ACV) was placed as an attractant. Trials were conducted for 24 hours to visualize the number of flies 105 entering the trap 110. Typically, flies that entered the trap 110 contacted the liquid ACV and died in the ACV. Flies were counted and recorded at 4, 6, and 24 hours. No control other than DEET was used for this experiment, because it was a single trap, comparing the number of flies 105 repelled by the repellent versus the number of flies 105 interacting with the attractant (ACV).
as §3

Drosophila melanogaster [3] = assay: Gustatory assay (fructose preference, food colouring); conditions: 1 hour feeding; for gustatory repellency (preference for repellent-treated sugar versus control-treated sugar): 35 mM fructose with 5 mM repellent vs 25 mM fructose control; for gustatory repellency compared with DEET: 5 mM repellent, FIG. 12
Method: The D. melanogaster assays served as a model for SWD repellency. Forty different aromatic amides were studied at a 25% concentration by weight in DMSO, and the fruit fly chemosensory behaviors in response thereto were characterized.
In the gustatory assay, the consumption of sugar (from a solution in a gel) treated at varying concentrations of the present repellent compounds was compared to the consumption of control-treated sugar. For the habituation assay, flies were tested over repeated exposures to the present repellent compounds to measure changes in behavioral preference for the compounds.
Flies were continuously monitored throughout their lifecycle. In doing so, 3- to 5-day-old flies (half male and half female) were selected and starved for 20 hours. Flies were then introduced to 96-well plates 200 with wells 210a-220vv that were alternately filled with two different sugar solutions, as shown in FIG. 8. Wells 210a-210vv were filled with 25 mM fructose in DMSO (as a control), colored with red food coloring, and wells 220a-220vv were filled with […] fructose mixed with 5 mM of the present insect repellent in DMSO, colored with blue food coloring. The food coloring is nontoxic, so it has no effect on preference. Using an established protocol (Montell, C., et al., Avoiding DEET through insect gustatory receptors. NIH Neuron 67(4), 2010, 555-561: doi:10.1016/j.neuron.2010.07.006), flies selected between the fructose control or fructose mixed with aromatic amide repellent. Tests were performed on at least one group of about 50 males and at least one group of 50 females. Flies were placed in the dark for 1 hour, then the food coloring in the fly's abdomen was visualized under a compound microscope. The color of the abdomen was noted, along with the intensity, providing a quantitative idea of how much sugar each fly consumed, and from which type of well (control vs. mixed with repellent). The flies were fed for one hour so that the amount of food coloring was significant enough to be visible. A preference index was made to define the amount of food coloring consumed and assess the degree of repellent avoidance via gustatory processes.
as §3

[4] = one-choice trap, 25% concentration
[5] = one-choice trap, 25% concentration, 6 hours

Row | SMILES | participation in choosing either trap (Drosophila melanogaster [1]; 25% by weight, 6 hours) | trap preference (control trap versus repellent-treated trap) (Drosophila melanogaster [1]; 6 hours) | repellency compared with DEET, one-choice trap assay (Drosophila melanogaster [2]) | fly death during the 6-hour screen (Drosophila melanogaster [2]; [5]) | also measured
1 | Cc1cccc(C(=O)N2CCCCC2)c1 [Compound 1mC] | less overall participation | preference for the control trap | more effective than DEET | no fly death | average number of flies that chose a trap in 6 hours (Drosophila melanogaster [1]; 25% by weight, 20 flies per assay, 6 hours): 1 flies; interaction with control trap in comparison with repellent-treated trap (Drosophila melanogaster [1]; 25% by weight): more flies interacted with the control trap; aversion (no flies entering the single-choice trap) (Drosophila melanogaster [2]; [4]): 100%; ranking among repellents in the one-choice assay (Drosophila melanogaster [2]; [4]): most effective repellents; repellency (Drosophila melanogaster [2]; [5]): significant repellency
2 | Cc1cccc(C(=O)N2CCOCC2)c1 [Compound 1mD] |  |  |  |  | gustatory repellency (preference for repellent-treated sugar versus control-treated sugar) (Drosophila melanogaster [3]): act as a gustatory repellent
3 | Cc1cccc(C(=O)N2CCN(C)CC2)c1 [Compound 1mE, 1-methyl-4-(3-methylbenzoyl)piperazine] |  |  | more effective than DEET | some fly death | 
4 | Cc1ccccc1C(=O)N1CCOCC1 [Compound 1oD] | less overall participation | preference for the control trap | more effective than DEET | some fly death | 
5 | Cc1ccccc1C(=O)N1CCN(C)CC1 [Compound 1oE] | less overall participation | preference for the control trap |  |  | interaction with control trap in comparison with repellent-treated trap (Drosophila melanogaster [1]; 25% by weight): more flies interacted with the control trap
6 | O=C(c1cccc(F)c1)N1CCCCC1 [Compound 2mC] |  |  | more effective than DEET |  | 
7 | O=C(c1ccccc1F)N1CCCC1 [Compound 2oB] | less overall participation | preference for the control trap |  |  | interaction with control trap in comparison with repellent-treated trap (Drosophila melanogaster [1]; 25% by weight): more flies interacted with the control trap
8 | O=C(c1ccccc1F)N1CCCCC1 [Compound 2oC] |  |  | more effective than DEET | no fly death | repellency (Drosophila melanogaster [2]; [5]): significant repellency
9 | O=C(c1ccccc1F)N1CCOCC1 [Compound 2oD] |  |  | more effective than DEET |  | 
10 | O=C(c1cccc(C(F)(F)F)c1)N1CCCC1 [Compound 3mB] | less overall participation | preference for the control trap | more effective than DEET | no fly death | repellency (Drosophila melanogaster [2]; [5]): significant repellency
11 | O=C(c1cccc(C(F)(F)F)c1)N1CCCCC1 [Compound 3mC] | less overall participation | preference for the control trap | more effective than DEET | no fly death | gustatory repellency compared with DEET (Drosophila melanogaster [3]): significantly worse than DEET; gustatory repellency (preference for repellent-treated sugar versus control-treated sugar) (Drosophila melanogaster [3]): act as a gustatory repellent; repellency (Drosophila melanogaster [2]; [5]): significant repellency
12 | O=C(c1cccc(C(F)(F)F)c1)N1CCOCC1 [Compound 3mD] |  |  | more effective than DEET | some fly death | 
13 | O=C(c1ccccc1C(F)(F)F)N1CCCC1 [Compound 3oB] |  |  | more effective than DEET |  | 
14 | CN1CCN(C(=O)c2ccccc2C(F)(F)F)CC1 [Compound 3oE] |  |  | more effective than DEET |  | 
15 | O=C(c1cccc([N+](=O)[O-])c1)N1CCCCC1 [Compound 4mC] |  |  | more effective than DEET; also recorded: significantly better than DEET | all the flies were dead | average number of flies that entered the trap (Drosophila melanogaster [2]; one-choice trap, 25% concentration, 20 flies per assay, 6 hours): 5 flies; fly mortality (Drosophila melanogaster [2]; one-choice trap, 25% concentration, exposure in the gas phase): high mortality
16 | O=C(c1cccc([N+](=O)[O-])c1)N1CCOCC1 [Compound 4mD] |  |  |  |  | gustatory repellency (preference for repellent-treated sugar versus control-treated sugar) (Drosophila melanogaster [3]): act as a gustatory repellent
17 | CN1CCN(C(=O)c2ccccc2[N+](=O)[O-])CC1 [Compound 4oE] |  |  | more effective than DEET | some fly death | 
18 | COc1cccc(C(=O)N2CCCC2)c1 [Compound 5mB] | much higher mean participation | significantly greater preference for the control trap |  |  | gustatory repellency compared with DEET (Drosophila melanogaster [3]): worse than DEET; gustatory repellency (preference for repellent-treated sugar versus control-treated sugar) (Drosophila melanogaster [3]): act as a gustatory repellent; also recorded: slightly lower preference
19 | COc1cccc(C(=O)N2CCCCC2)c1 [Compound 5mC] |  |  | more effective than DEET |  | gustatory repellency (preference for repellent-treated sugar versus control-treated sugar) (Drosophila melanogaster [3]): act as a gustatory repellent
20 | COc1cccc(C(=O)N2CCN(C)CC2)c1 [Compound 5mE] | less overall participation | preference for the control trap |  |  | 
21 | COc1ccccc1C(=O)N1CCCCC1 [Compound 5oC] |  |  | more effective than DEET |  | 
22 | Nc1cccc(C(=O)N2CCCC2)c1 [Compound 6mB] | higher mean participation | preferred the control trap |  |  | 
23 | CN1CCN(C(=O)c2cccc(N)c2)CC1 [Compound 6mE] |  |  | more effective than DEET |  | 
24 | Nc1ccccc1C(=O)N1CCCCC1 [Compound 6oC] |  |  | more effective than DEET |  | 
